SMILES strings stand for the structures. Entries after “also recorded” stand apart in the source; their conditions may differ.

This assay deals with T1, 3 × FLAG-tagged HOIP RBR from HEK293T cells (Homo sapiens, UniProt Q96EP0).
T1 construct: expressed in transfected cells; host or cells: HEK293T, transient, modified pcDNA3.1(+)
Briefly: Immunoprecipitation and on-bead polyubiquitination assay after in-cell labeling. It is filed as cell-based. The note with it: 30 μM, E1, UbcH7, ubiquitin. As for the experimental part: Supplementary Figure S12. A) Uncropped SDS gel and B) and Western Blot (FLAG antibody, 1:1000 dilution) from the immunoprecipitation (IP) of 3×FLAG HOIP RBR from HEK293T cells.
The cells had been incubated with compounds (11a) or (11i) [30 µM], or DMSO for 8 h. C) TIC traces for DMSO control, (11a)- and (11i)-treated HEK293T cell lysate after IP and tryptic digest.
D) Extracted TIC traces for the tryptic peptide […], accounting for possible cysteine labelling (iodoacetamide, (11a) or (11i)) and methionine oxidation.
Immunoprecipitation and Polyubiquitination assay
The protein concentrations of the clarified lysates were normalized with reaction buffer (50 mM Tris-HCl, pH 7.5, 1.5 mM MgCl2, 150 mM NaCl, 1 mM Na3VO4, complete protease inhibitor) to 1.5 mg/mL (final volume 500 µL, and <0.1% IGEPAL-CA630). Magnetic beads containing anti-FLAG M2 antibody (20 µL suspension per vial; Merck) were immobilized using a magnetic stand (GE Healthcare), washed with PBS (2 × 0.5 mL) and reaction buffer (2 × 0.5 mL) and then suspended in the lysate mixtures. Beads without lysate was used as control. The bead […]
A polyubiquitination assay master mix was prepared by mixing E1, UbcH7, ubiquitin, MgCl2, in buffer (50 mM HEPES, 150 mM NaCl, pH 7.5). […] All samples were analyzed by SDS PAGE and Western Blot (Figure 6C and Supplementary Figure S13) as described in sections 4.5 and 4.6. […]

T1 sequence (Q96EP0 697-1072): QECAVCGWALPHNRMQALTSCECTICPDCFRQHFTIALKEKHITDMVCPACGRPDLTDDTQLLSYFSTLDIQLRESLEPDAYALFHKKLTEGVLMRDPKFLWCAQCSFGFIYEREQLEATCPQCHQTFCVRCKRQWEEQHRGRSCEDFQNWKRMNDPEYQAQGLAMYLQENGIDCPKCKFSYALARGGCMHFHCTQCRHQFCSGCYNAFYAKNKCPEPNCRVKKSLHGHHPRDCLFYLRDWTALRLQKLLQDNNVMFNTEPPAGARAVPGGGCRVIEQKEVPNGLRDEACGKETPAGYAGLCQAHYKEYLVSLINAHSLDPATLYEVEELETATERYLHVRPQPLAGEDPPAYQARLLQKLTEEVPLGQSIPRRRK

`COC(=O)/C=C/CNC(=O)c1cc2c([nH]c1=O)CCCC2` [Compound 11a]: the “catalytic activity of HOIP (free polyubiquitin chain formation) after in-cell labeling” value is given as “significant loss of the catalytic activity; also recorded: significant decrease in free polyubiquitin chain formation”.
